# Source: patent US8357694B2, “Substituted 5,6-dihydro-6-phenylbenzo[F]isoquinolin-2-amine compounds” (ArQule, Inc., priority 2008, dated 2013)
# Legend:
# Assay type in all cases: cell-based
# KATO III = assay: MTS assay, KATO III
# Description: (§1) Cells were maintained at 37° C., 5% CO2 in DMEM media supplemented with 1% fetal bovine serum, penicillin/streptomycin and fungizone (Invitrogen). Cells were seeded into 96-well tissue culture plates at 3000 per well and cultured at 37° C. for 18 hours. Test compounds were dissolved and diluted to 300× in DMSO then diluted 1:40 in DMEM.
# DLD-1 = assay: MTS cell kill, DLD-1
# Description: as §1
# MDA-MB-231 = assay: MTS cell kill, MDA-MB-231
# Description: as §1
# NCI-H1299 = assay: MTS cell kill, NCI-H1299
# Description: as §1
# PACA-2 = assay: MTS cell kill, PACA-2
# Description: as §1
# PC-3 = assay: MTS cell kill, PC-3
# Description: as §1
# Further: test concentration or dose not given here.
smiles,measurement,setting,value
"COCC(=O)Nc1ccc(C2Cc3cnc(NCCCCN(C)C)nc3-c3ccccc32)cc1 (stereo not drawn) [Example 471, N-[4-(2-{[4-(dimethylamino)butyl]amino}-5,6-dihydrobenzo[h]quinazolin-6-yl)phenyl]-2-methoxyacetamide]",MTS cell kill data (% inhibition) KATO III,KATO III,A (A = 80-100% inhibition)
same,MTS cell kill data (% inhibition) DLD-1,DLD-1,A (A = 80-100% inhibition)
same,MTS cell kill data (% inhibition) MDA-MB-231,MDA-MB-231,A (A = 80-100% inhibition)
same,MTS cell kill data (% inhibition) NCI-H1299,NCI-H1299,A (A = 80-100% inhibition)
same,MTS cell kill data (% inhibition) PACA-2,PACA-2,A (A = 80-100% inhibition)
same,MTS cell kill data (% inhibition) PC-3,PC-3,C (C = <50% inhibition)
"CN(C)CCCCNc1ncc2c(n1)-c1ccccc1C(c1ccc(NS(=O)(=O)c3ccc(C(C)(C)C)cc3)cc1)C2 (stereo not drawn) [Example 435, 4-tert-butyl-N-[4-(2-{[4-(dimethylamino)butyl]amino}-5,6-dihydrobenzo[h]quinazolin-6-yl)phenyl]benzenesulfonamide]",MTS cell kill data (% inhibition) KATO III,KATO III,A (A = 80-100% inhibition)
same,MTS cell kill data (% inhibition) DLD-1,DLD-1,A (A = 80-100% inhibition)
same,MTS cell kill data (% inhibition) MDA-MB-231,MDA-MB-231,A (A = 80-100% inhibition)
same,MTS cell kill data (% inhibition) NCI-H1299,NCI-H1299,A (A = 80-100% inhibition)
same,MTS cell kill data (% inhibition) PACA-2,PACA-2,A (A = 80-100% inhibition)
same,MTS cell kill data (% inhibition) PC-3,PC-3,A (A = 80-100% inhibition)
"Cc1ccc(S(=O)(=O)Nc2ccc(C3Cc4cnc(NCCCCN(C)C)nc4-c4ccccc43)cc2)cc1 (stereo not drawn) [Example 420, N-[4-(2-{[4-(dimethylamino)butyl]amino}-5,6-dihydrobenzo[h]quinazolin-6-yl)phenyl]-4-methylbenzenesulfonamide]",MTS cell kill data (% inhibition) KATO III,KATO III,A (A = 80-100% inhibition)
same,MTS cell kill data (% inhibition) DLD-1,DLD-1,A (A = 80-100% inhibition)
same,MTS cell kill data (% inhibition) MDA-MB-231,MDA-MB-231,A (A = 80-100% inhibition)
same,MTS cell kill data (% inhibition) NCI-H1299,NCI-H1299,A (A = 80-100% inhibition)
same,MTS cell kill data (% inhibition) PACA-2,PACA-2,A (A = 80-100% inhibition)
same,MTS cell kill data (% inhibition) PC-3,PC-3,A (A = 80-100% inhibition)
"Cc1cccc(Cl)c1S(=O)(=O)Nc1ccc(C2Cc3cnc(NCCCCN(C)C)nc3-c3ccccc32)cc1 (stereo not drawn) [Example 431, 2-chloro-N-[4-(2-{[4-(dimethylamino)butyl]amino}-5,6-dihydrobenzo[h]quinazolin-6-yl)phenyl]-6-methylbenzenesulfonamide]",MTS cell kill data (% inhibition) KATO III,KATO III,A (A = 80-100% inhibition)
same,MTS cell kill data (% inhibition) DLD-1,DLD-1,A (A = 80-100% inhibition)
same,MTS cell kill data (% inhibition) MDA-MB-231,MDA-MB-231,A (A = 80-100% inhibition)
same,MTS cell kill data (% inhibition) NCI-H1299,NCI-H1299,A (A = 80-100% inhibition)
same,MTS cell kill data (% inhibition) PACA-2,PACA-2,A (A = 80-100% inhibition)
same,MTS cell kill data (% inhibition) PC-3,PC-3,B (B = 50-79% inhibition)
"N#Cc1cccc(NC(=O)N2CCC3(CC2)Cc2cnc(Nc4ccc(CCO)cc4)nc2-c2ccccc23)c1 [Example 413, N-(3-cyanophenyl)-2-{[4-(2-hydroxyethyl)phenyl]amino}-1′H,5H-spiro[benzo[h]quinazoline-6,4′-piperidine]-1′-carboxamide]",MTS cell kill data (% inhibition) KATO III,KATO III,A (A = 80-100% inhibition)
same,MTS cell kill data (% inhibition) DLD-1,DLD-1,A (A = 80-100% inhibition)
same,MTS cell kill data (% inhibition) MDA-MB-231,MDA-MB-231,A (A = 80-100% inhibition)
same,MTS cell kill data (% inhibition) NCI-H1299,NCI-H1299,B (B = 50-79% inhibition)
same,MTS cell kill data (% inhibition) PACA-2,PACA-2,A (A = 80-100% inhibition)
"CN(C)CCCCNc1ncc2c(n1)-c1ccccc1C(c1ccc(NS(=O)(=O)c3cccc(C(F)(F)F)c3)cc1)C2 (stereo not drawn) [Example 430, N-[4-(2-{[4-(dimethylamino)butyl]amino}-5,6-dihydrobenzo[h]quinazolin-6-yl)phenyl]-3-(trifluoromethyl)benzenesulfonamide]",MTS cell kill data (% inhibition) KATO III,KATO III,A (A = 80-100% inhibition)
same,MTS cell kill data (% inhibition) DLD-1,DLD-1,A (A = 80-100% inhibition)
same,MTS cell kill data (% inhibition) MDA-MB-231,MDA-MB-231,A (A = 80-100% inhibition)
same,MTS cell kill data (% inhibition) NCI-H1299,NCI-H1299,A (A = 80-100% inhibition)
same,MTS cell kill data (% inhibition) PACA-2,PACA-2,A (A = 80-100% inhibition)
same,MTS cell kill data (% inhibition) PC-3,PC-3,A (A = 80-100% inhibition)
"Cc1ccc(S(=O)(=O)Nc2ccc(C3Cc4cnc(NCCCCN(C)C)nc4-c4ccccc43)cc2)c(C)c1 (stereo not drawn) [Example 423, N-[4-(2-{[4-(dimethylamino)butyl]amino}-5,6-dihydrobenzo[h]quinazolin-6-yl)phenyl]-2,4-dimethylbenzenesulfonamide]",MTS cell kill data (% inhibition) KATO III,KATO III,A (A = 80-100% inhibition)
same,MTS cell kill data (% inhibition) DLD-1,DLD-1,A (A = 80-100% inhibition)
same,MTS cell kill data (% inhibition) MDA-MB-231,MDA-MB-231,A (A = 80-100% inhibition)
same,MTS cell kill data (% inhibition) NCI-H1299,NCI-H1299,A (A = 80-100% inhibition)
same,MTS cell kill data (% inhibition) PACA-2,PACA-2,A (A = 80-100% inhibition)
same,MTS cell kill data (% inhibition) PC-3,PC-3,A (A = 80-100% inhibition)
"CNc1ncc2c(n1)-c1ccccc1C1(CCN(C(=O)Nc3ccc(C#N)cc3)CC1)C2 [Example 397, N-(4-cyanophenyl)-2-(methylamino)-1′H,5H-spiro[benzo[h]quinazoline-6,4′-piperidine]-1′-carboxamide]",MTS cell kill data (% inhibition) KATO III,KATO III,A (A = 80-100% inhibition)
same,MTS cell kill data (% inhibition) DLD-1,DLD-1,B (B = 50-79% inhibition)
same,MTS cell kill data (% inhibition) MDA-MB-231,MDA-MB-231,B (B = 50-79% inhibition)
same,MTS cell kill data (% inhibition) NCI-H1299,NCI-H1299,C (C = <50% inhibition)
same,MTS cell kill data (% inhibition) PACA-2,PACA-2,A (A = 80-100% inhibition)
"COc1ccc(C(=O)Nc2ccc(C3Cc4cnc(NCCCCN(C)C)nc4-c4ccccc43)cc2)cc1F (stereo not drawn) [Example 474, N-[4-(2-{[4-(dimethylamino)butyl]amino}-5,6-dihydrobenzo[h]quinazolin-6-yl)phenyl]-3-fluoro-4-methoxybenzamide]",MTS cell kill data (% inhibition) KATO III,KATO III,A (A = 80-100% inhibition)
same,MTS cell kill data (% inhibition) DLD-1,DLD-1,A (A = 80-100% inhibition)
same,MTS cell kill data (% inhibition) MDA-MB-231,MDA-MB-231,B (B = 50-79% inhibition)
same,MTS cell kill data (% inhibition) NCI-H1299,NCI-H1299,A (A = 80-100% inhibition)
same,MTS cell kill data (% inhibition) PACA-2,PACA-2,A (A = 80-100% inhibition)
same,MTS cell kill data (% inhibition) PC-3,PC-3,A (A = 80-100% inhibition)
"CNc1ncc2c(n1)-c1ccccc1C1(CCN(C(=O)Nc3ccc(Oc4ccccc4)cc3)CC1)C2 [Example 406, 2-(methylamino)-N-(4-phenoxyphenyl)-1′H,5H-spiro[benzo[h]quinazoline-6,4′-piperidine]-1′-carboxamide]",MTS cell kill data (% inhibition) KATO III,KATO III,A (A = 80-100% inhibition)
same,MTS cell kill data (% inhibition) DLD-1,DLD-1,A (A = 80-100% inhibition)
same,MTS cell kill data (% inhibition) MDA-MB-231,MDA-MB-231,A (A = 80-100% inhibition)
same,MTS cell kill data (% inhibition) NCI-H1299,NCI-H1299,A (A = 80-100% inhibition)
same,MTS cell kill data (% inhibition) PACA-2,PACA-2,A (A = 80-100% inhibition)
"N#Cc1cccc(NC(=O)N2CCC3(CC2)Cc2cnc(Nc4ccc(CO)cc4)nc2-c2ccccc23)c1 [Example 414, N-(3-cyanophenyl)-2-{[4-(hydroxymethyl)phenyl]amino}-1′H,5H-spiro[benzo[h]quinazoline-6,4′-piperidine]-1′-carboxamide]",MTS cell kill data (% inhibition) KATO III,KATO III,A (A = 80-100% inhibition)
same,MTS cell kill data (% inhibition) DLD-1,DLD-1,B (B = 50-79% inhibition)
same,MTS cell kill data (% inhibition) MDA-MB-231,MDA-MB-231,B (B = 50-79% inhibition)
same,MTS cell kill data (% inhibition) NCI-H1299,NCI-H1299,B (B = 50-79% inhibition)
same,MTS cell kill data (% inhibition) PACA-2,PACA-2,A (A = 80-100% inhibition)
"CN1CCN(CCCNc2ncc3c(n2)-c2ccccc2C(c2ccc(NCc4cccc5cc[nH]c45)cc2)C3)CC1 (stereo not drawn) [Example 573, 6-{4-[(1H-indol-7-ylmethyl)amino]phenyl}-N-[3-(4-methylpiperazin-1-yl)propyl]-5,6-dihydrobenzo[h]quinazolin-2-amine]",MTS cell kill data (% inhibition) KATO III,KATO III,A (A = 80-100% inhibition)
same,MTS cell kill data (% inhibition) DLD-1,DLD-1,A (A = 80-100% inhibition)
same,MTS cell kill data (% inhibition) MDA-MB-231,MDA-MB-231,A (A = 80-100% inhibition)
same,MTS cell kill data (% inhibition) NCI-H1299,NCI-H1299,A (A = 80-100% inhibition)
same,MTS cell kill data (% inhibition) PACA-2,PACA-2,A (A = 80-100% inhibition)
"CNc1ncc2c(n1)-c1ccccc1C1(CCN(C(=O)Nc3cccc(Cl)c3)CC1)C2 [Example 408, N-(3-chlorophenyl)-2-(methylamino)-1′H,5H-spiro[benzo[h]quinazoline-6,4′-piperidine]-1′-carboxamide]",MTS cell kill data (% inhibition) KATO III,KATO III,A (A = 80-100% inhibition)
same,MTS cell kill data (% inhibition) DLD-1,DLD-1,A (A = 80-100% inhibition)
same,MTS cell kill data (% inhibition) MDA-MB-231,MDA-MB-231,C (C = <50% inhibition)
same,MTS cell kill data (% inhibition) NCI-H1299,NCI-H1299,C (C = <50% inhibition)
same,MTS cell kill data (% inhibition) PACA-2,PACA-2,A (A = 80-100% inhibition)
"CCCc1ccc(CNc2ccc(C3Cc4cnc(NCCCN5CCN(C)CC5)nc4-c4ccccc43)cc2)cc1 (stereo not drawn) [Example 569, N-[3-(4-methylpiperazin-1-yl)propyl]-6-{4-[(4-propylbenzyl)amino]phenyl}-5,6-dihydrobenzo[h]quinazolin-2-amine]",MTS cell kill data (% inhibition) KATO III,KATO III,A (A = 80-100% inhibition)
same,MTS cell kill data (% inhibition) DLD-1,DLD-1,A (A = 80-100% inhibition)
same,MTS cell kill data (% inhibition) MDA-MB-231,MDA-MB-231,A (A = 80-100% inhibition)
same,MTS cell kill data (% inhibition) NCI-H1299,NCI-H1299,A (A = 80-100% inhibition)
same,MTS cell kill data (% inhibition) PACA-2,PACA-2,A (A = 80-100% inhibition)
"CN1CCN(CCCNc2ncc3c(n2)-c2ccccc2C(c2ccc(NCc4ccccc4F)cc2)C3)CC1 (stereo not drawn) [Example 574, 6-{4-[(2-fluorobenzyl)amino]phenyl}-N-[3-(4-methylpiperazin-1-yl)propyl]-5,6-dihydrobenzo[h]quinazolin-2-amine]",MTS cell kill data (% inhibition) KATO III,KATO III,A (A = 80-100% inhibition)
same,MTS cell kill data (% inhibition) DLD-1,DLD-1,A (A = 80-100% inhibition)
same,MTS cell kill data (% inhibition) MDA-MB-231,MDA-MB-231,A (A = 80-100% inhibition)
same,MTS cell kill data (% inhibition) NCI-H1299,NCI-H1299,A (A = 80-100% inhibition)
same,MTS cell kill data (% inhibition) PACA-2,PACA-2,A (A = 80-100% inhibition)
"Cc1ccc(CNc2ccc(C3Cc4cnc(NCCCN5CCN(C)CC5)nc4-c4ccccc43)cc2)c(C)c1 (stereo not drawn) [Example 571, 6-{4-[(2,4-dimethylbenzyl)amino]phenyl}-N-[3-(4-methylpiperazin-1-yl)propyl]-5,6-dihydrobenzo[h]quinazolin-2-amine]",MTS cell kill data (% inhibition) KATO III,KATO III,A (A = 80-100% inhibition)
same,MTS cell kill data (% inhibition) DLD-1,DLD-1,A (A = 80-100% inhibition)
same,MTS cell kill data (% inhibition) MDA-MB-231,MDA-MB-231,A (A = 80-100% inhibition)
same,MTS cell kill data (% inhibition) NCI-H1299,NCI-H1299,A (A = 80-100% inhibition)
same,MTS cell kill data (% inhibition) PACA-2,PACA-2,A (A = 80-100% inhibition)
